Test results taken from ChEMBL document CHEMBL1649463, “Capsular type and antibiotic resistance in Streptococcus agalactiae isolates from patients, ranging from newborns to the elderly, with invasive infections” (2009).
In brackets after ≈: the same amount, converted by molar mass.

Test system: Streptococcus agalactiae
Test: Antimicrobial activity against Streptococcus agalactiae clinical isolates by agar dilution method
Type: functional

Row | MIC50 | MIC90 | SMILES
1 | 0.016 mg/L (≈ 0.0471 µM) | 0.031 mg/L (≈ 0.0913 µM) | CC(=N)N1CC[C@H](SC2=C(C(=O)O)N3C(=O)[C@H]([C@@H](C)O)[C@H]3C2)C1
2 | 0.031 mg/L (≈ 0.0784 µM) | 0.063 mg/L (≈ 0.159 µM) | C=CC1=C(C(=O)O)N2C(=O)[C@@H](NC(=O)/C(=N\O)c3csc(N)n3)[C@H]2SC1
3 | 0.063 mg/L (≈ 0.172 µM) | 0.125 mg/L (≈ 0.342 µM) | CC1(C)S[C@@H]2[C@H](NC(=O)[C@H](N)c3ccc(O)cc3)C(=O)N2[C@H]1C(=O)O [AMOXICILLIN]
4 | 0.125 mg/L (≈ 0.358 µM) | 0.125 mg/L (≈ 0.358 µM) | CC1(C)S[C@@H]2[C@H](NC(=O)[C@H](N)c3ccccc3)C(=O)N2[C@H]1C(=O)O [AMPICILLIN]
5 | 0.031 mg/L (≈ 0.0499 µM) | 0.031 mg/L (≈ 0.0499 µM) | CO/N=C(\C(=O)N[C@@H]1C(=O)N2C(C(=O)OCOC(=O)C(C)(C)C)=C(/C=C\c3scnc3C)CS[C@H]12)c1csc(N)n1 [CEFDITOREN PIVOXIL]
6 | 0.031 mg/L (≈ 0.0681 µM) | 0.063 mg/L (≈ 0.138 µM) | CO/N=C(\C(=O)N[C@@H]1C(=O)N2C(C(=O)O)=C(COC(C)=O)CS[C@H]12)c1csc(N)n1 [CEFOTAXIME]
7 | 0.5 mg/L (≈ 0.951 µM) | 0.5 mg/L (≈ 0.951 µM) | CN(C)CCn1nnnc1SCC1=C(C(=O)O)N2C(=O)[C@@H](NC(=O)Cc3csc(N)n3)[C@H]2SC1 [CEFOTIAM]
8 | 0.125 mg/L (≈ 0.167 µM) | ≥ 64 mg/L | CC[C@H]1OC(=O)[C@H](C)[C@@H](O[C@H]2C[C@@](C)(OC)[C@@H](O)[C@H](C)O2)[C@H](C)[C@@H](O[C@@H]2O[C@H](C)C[C@H](N(C)C)[C@H]2O)[C@](C)(OC)C[C@@H](C)C(=O)[C@H](C)[C@@H](O)[C@]1(C)O [CLARITHROMYCIN]
9 | 0.063 mg/L (≈ 0.148 µM) | ≥ 64 mg/L | CCC[C@@H]1C[C@@H](C(=O)N[C@@H]([C@H]2O[C@H](SC)[C@H](O)[C@@H](O)[C@H]2O)[C@H](C)Cl)N(C)C1 [CLINDAMYCIN]
10 | 0.032 mg/L (≈ 0.0436 µM) | ≥ 64 mg/L | CC[C@H]1OC(=O)[C@H](C)[C@@H](O[C@H]2C[C@@](C)(OC)[C@@H](O)[C@H](C)O2)[C@H](C)[C@@H](O[C@@H]2O[C@H](C)C[C@H](N(C)C)[C@H]2O)[C@](C)(O)C[C@@H](C)C(=O)[C@H](C)[C@@H](O)[C@]1(C)O [ERYTHROMYCIN]
11 | 2 mg/L | ≥ 64 mg/L | C[C@H]1COc2c(N3CCN(C)CC3)c(F)cc3c(=O)c(C(=O)O)cn1c23.C[C@H]1COc2c(N3CCN(C)CC3)c(F)cc3c(=O)c(C(=O)O)cn1c23.O [LEVOFLOXACIN]
12 | 0.063 mg/L (≈ 0.164 µM) | 0.063 mg/L (≈ 0.164 µM) | C[C@@H](O)[C@H]1C(=O)N2C(C(=O)O)=C(S[C@@H]3CN[C@H](C(=O)N(C)C)C3)[C@H](C)[C@H]12 [MEROPENEM]
13 | 0.063 mg/L (≈ 0.188 µM) | 0.063 mg/L (≈ 0.188 µM) | CC1(C)S[C@@H]2[C@H](NC(=O)Cc3ccccc3)C(=O)N2[C@H]1C(=O)O [PENICILLIN G]
